Experimental data: patent US9974778B2, “Substituted pyridinones as MGAT2 inhibitors” (BRISTOL-MYERS SQUIBB COMPANY, priority 2014, dated 2018)

Molecular target: T1, Human MGAT-2 (Homo sapiens, UniProt Q3SYC2)
T1 construct: made in house; host or cells: Sf9 cells (membrane preparation)
Assay: MGAT LCMS Assay
Format: biochemical
Conditions: human MGAT2 membranes expressed in Sf9 cells; 100 μM 2-oleoylglycerol, 15 μM oleoyl-coenzyme A; read-out: h-MGAT LCMS IC50
Procedure: Assay plates were run through a fully automated robotics system and shaken for 5 seconds every minute for a total 10 minutes. The reactions were then quenched with 120 μL of ice cold methanol containing 1 μg/mL 1,2-distearoyl-rac-glycerol as the internal standard. Plates were shaken for 2 minutes and spun down to remove protein precipitation. After the spin, samples were transferred to LC/MS compatible PCR plates. For LC/MS analysis, a ThermoFisher Surveyor pump, utilizing a Waters […]® C8, 50×2.1 mm column, was used for the chromatography of enzyme products. The buffer system consists of 0.1% formic acid in water with a mobile phase consisting 0.1% formic acid in methanol. […] The first 0.5 minutes of each injection was diverted to waste to eliminate the presence of Phosphate buffer in the enzymatic reaction. The column was run at 0.6 mL/min and a temperature of 65° C. Mass spectrometry analysis of the samples was performed on a ThermoFisher Quantum Triple quad utilizing APCI (+) as the mode of ionization. […] The ratio of Diolein to internal standard (Peak Area Ratio) is utilized to calculate IC50 values.

T1 sequence (Q3SYC2 whole entry): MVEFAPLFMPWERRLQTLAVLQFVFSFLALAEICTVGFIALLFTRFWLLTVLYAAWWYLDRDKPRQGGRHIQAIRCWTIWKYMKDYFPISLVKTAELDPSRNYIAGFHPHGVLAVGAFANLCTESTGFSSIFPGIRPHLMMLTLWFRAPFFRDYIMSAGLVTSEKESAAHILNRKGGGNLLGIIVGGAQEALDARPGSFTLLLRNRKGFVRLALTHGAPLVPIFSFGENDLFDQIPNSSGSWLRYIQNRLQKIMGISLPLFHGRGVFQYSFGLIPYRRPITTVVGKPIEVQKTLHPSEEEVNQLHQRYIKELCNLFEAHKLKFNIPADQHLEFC

With `CCC/C=C/c1ccc(-c2cc(-c3ccc(N(C)C)cc3)c(-c3nn[nH]n3)c(=O)[nH]2)cc1` [Example 80, (E)-4-(4-(Dimethylamino)phenyl)-6-(4-(pent-1-en-1-yl)phenyl)-3-(2H-tetrazol-5-yl)pyridin-2(1H)-one] the IC50 was 168 nM.

Work on `Cc1ccc(-c2cc(-c3ccc(Cc4ccccc4)cc3)[nH]c(=O)c2-c2nn[nH]n2)cc1` [Example 81, 6-(4-Benzylphenyl)-3-(2H-tetrazol-5-yl)-4-(p-tolyl)pyridin-2(1H)-one] yielded an IC50 of 256 nM.

In the case of `CN(C)c1ncc(-c2cc(C3CCCCC3)[nH]c(=O)c2C(=O)Nc2ccc(OC(F)(F)F)cc2)s1` [Example 82, 6-Cyclohexyl-4-(2-(dimethylamino)thiazol-5-yl)-2-oxo-N-(4-(trifluoromethoxy)phenyl)-1,2-dihydropyridinc-3-carboxamide], the IC50 is reported as 1 nM.

Work on `CCc1ccc(-c2cc(-c3ccc(OCCCCCC(F)(F)F)cc3)[nH]c(=O)c2C(=O)NS(=O)(=O)C2CC2)s1` [Example 84, N-(Cyclopropylsulfonyl)-4-(5-ethylthiophen-2-yl)-2-oxo-6-(4-((6,6,6-trifluorohexyl)oxy)phenyl)-1,2-dihydropyridine-3-carboxamide] yielded an IC50 of 1 nM.

`O=C(Nc1ccc(OC(F)(F)F)cc1)c1c(-c2ccc(Cl)s2)cc(C2CCCCC2)[nH]c1=O` [Example 85, 4-(5-Chlorothiophen-2-yl)-6-cyclohexyl-2-oxo-N-(4-(trifluoromethoxy)phenyl)-1,2-dihydropyridine-3-carboxamide] gave an IC50 of 7 nM.

Compound `O=c1[nH]c(-c2ccc(OCCCC(F)(F)F)cc2F)cc(-c2ccc3c(c2)CCCC3)c1-c1nn[nH]n1` [Example 89, 6-(2-Fluoro-4-(4,4,4-trifluorobutoxy)phenyl)-4-(5,6,7,8-tetrahydronaphthalen-2-yl)-3-(2H-tetrazol-5-yl)pyridin-2(1H)-one] has an IC50 of 24 nM.

For `O=C(Nc1ccc(OC(F)(F)F)cc1)c1c(-c2cnn(C3CC3)c2)cc(C2CCCCC2)[nH]c1=O` [Example 94], the IC50 was 355 nM.

Compound `O=C(Nc1ccc(OC(F)(F)F)cc1)c1c(-c2cnn(C3CC3)c2)cc(-c2ccc(OCCCC(F)(F)F)cc2)[nH]c1=O` [Example 95, 4-(1-Cyclopropyl-1H-pyrazol-4-yl)-2-oxo-6-(4-(4,4,4-trifluorobutoxy)phenyl)-N-(4-(trifluoromethoxy)phenyl)-1,2-dihydropyridine-3-carboxamide] has an IC50 of 17 nM.

`O=c1[nH]c(-c2ccc(OCCCCCC(F)(F)F)cc2F)cc(-c2ccc(C3CC3)s2)c1-c1nn[nH]n1` [Example 96, 4-(5-Cyclopropylthiophen-2-yl)-6-(2-fluoro-4-((6,6,6-trifluorohexyl)oxy)phenyl)-3-(2H-tetrazol-5-yl)pyridin-2(1H)-one] gave an IC50 of 1 nM.

In the case of `O=c1[nH]c(-c2ccc(OCCCC(F)(F)F)cc2)cc(-c2ccn(CC3CC3)n2)c1-c1nnn[nH]1` [Example 97], the IC50 is reported as 153 nM.

`CS(=O)(=O)NC(=O)c1c(-c2ccn(CC3CC3)n2)cc(-c2ccc(OCCCC(F)(F)F)cc2)[nH]c1=O` [Example 98, 4-(1-(Cyclopropylmethyl)-1H-pyrazol-3-yl)-N-(methylsulfonyl)-2-oxo-6-(4-(4,4,4-trifluorobutoxy)phenyl)-1,2-dihydropyridine-3-carboxamide] was tested, and the IC50 was 332 nM.

`CCc1ccc(-c2cc(-c3ccc(OCCCCCC(F)(F)F)cc3)[nH]c(=O)c2C(=O)NS(C)(=O)=O)s1` [Example 101, 4-(5-Ethylthiophen-2-yl)-N-(methylsulfonyl)-2-oxo-6-(4-((6,6,6-trifluorohexyl)oxy)phenyl)-1,2-dihydropyridine-3-carboxamide] showed an IC50 of 7 nM.

In the case of `O=c1[nH]c(-c2ccc(CCCCC(F)(F)F)cc2F)cc(-c2ccn(C3CCC3)n2)c1-c1nnn[nH]1` [Example 103], the IC50 is reported as 26 nM.

`O=c1[nH]c(-c2ccc(OCCCCCC(F)(F)F)cc2F)cc(-c2ccn(C3CC3)n2)c1-c1nn[nH]n1` [Example 104, 4-(1-Cyclopropyl-1H-pyrazol-3-yl)-6-(2-fluoro-4-((6,6,6-trifluorohexyl)oxy)phenyl)-3-(2H-tetrazol-5-yl)pyridin-2(1H)-one] gave an IC50 of 84 nM.
